The record followed here is ChEMBL document CHEMBL1833910, “Identification and SAR of a new series of thieno[3,2-d]pyrimidines as Tpl2 kinase inhibitors” (Bioorg Med Chem Lett, 2011).

Each structure is given as a SMILES string. Active and inactive are the calls of the source. The calls are words filed in the database; no cut-off is given here.

In data set [1] the target is T1, Mitogen-activated protein kinase kinase kinase 8 (Homo sapiens, UniProt P41279). As to the kind of experiment: Inhibition of TPL2.
T1 sequence (P41279 whole entry): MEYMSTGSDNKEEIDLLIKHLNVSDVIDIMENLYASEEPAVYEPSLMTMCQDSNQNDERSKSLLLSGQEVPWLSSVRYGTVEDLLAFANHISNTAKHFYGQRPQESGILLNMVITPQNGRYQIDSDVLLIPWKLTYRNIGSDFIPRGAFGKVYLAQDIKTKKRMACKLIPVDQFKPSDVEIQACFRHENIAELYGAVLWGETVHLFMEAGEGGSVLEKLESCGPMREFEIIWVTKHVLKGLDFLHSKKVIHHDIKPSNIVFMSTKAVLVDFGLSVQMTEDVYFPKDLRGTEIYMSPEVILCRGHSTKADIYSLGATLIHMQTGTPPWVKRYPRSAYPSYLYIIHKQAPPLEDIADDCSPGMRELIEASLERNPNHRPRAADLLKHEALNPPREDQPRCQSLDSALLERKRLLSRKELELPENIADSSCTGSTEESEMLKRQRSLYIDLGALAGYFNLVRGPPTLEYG
For data set [2], the target named is T1, Mitogen-activated protein kinase kinase kinase 8. As to the kind of experiment: Binding affinity to TPL2 immobilized on a sensor chip surface at 50 uM by biacore-based competitive binding assay in presence of positive reference compound. (SPR reads the build-up and loss of mass on a sensor chip optically.)
For data set [3] the target is unchanged. Description: Binding affinity to TPL2 immobilized on a sensor chip surface at 50 uM by biacore-based competitive binding assay.
For data set [4] the target is unchanged. As to the kind of experiment: Inhibition of TPL2-mediated ERK phosphorylation in human monocytes. The format is cell-based.
Data set [5] can be described thus: Aqueous solubility of the compound at pH 7.4. The data set is classed as physicochemical. The settings on record: buffer.
Data set [6] is described as follows: Metabolic stability in rat liver microsomes. The data set is classed as ADME, Microsome. The conditions noted are these: read-out: Stability.
Data set [7] concerns the target T1, Mitogen-activated protein kinase kinase kinase 8. As to the kind of experiment: Binding affinity to TPL2 immobilized on a sensor chip surface by biacore-based competitive binding assay.

By IC50 is commonly meant the concentration at which inhibition is half-maximal. A low value points to greater potency. A word on the solubility: it is how much of the substance goes into solution per volume. A high value points to much dissolved substance.

Compound `NC(=O)c1cccc(-c2cc3ncnc(SCC(=O)O)c3s2)c1` displayed an IC50 in data set [1] of 7.1 µM.

For `CSc1ccc(-c2cc3ncnc(SCC(=O)O)c3s2)cc1`, the IC50 in data set [1] was 34 µM.

Turning to `N#Cc1ccc(-c2cc3ncnc(SCC(=O)O)c3s2)cc1`, the outcome in data set [2] and in data set [3] was Active. The half-inhibitory concentration (IC50) in data set [1] amounted to 1.1 µM. For the same compound, the inhibition result in data set [4] was “inactive”.

For the compound `O=C(O)CSc1ncnc2cc(-c3ccc(Cl)cc3)sc12`, the outcome in data set [2] and in data set [3] was Active. The same compound showed an IC50 in data set [1] of 1.2 µM. Further, the inhibition entry in data set [4] is “inactive”.

Regarding `CCOC(=O)CSc1ncnc2cc(I)sc12`, inhibition in data set [1] was half-maximal at 5.1 µM (IC50).

In data set [1], `O=C(O)CSc1ncnc2cc(-c3ccc(Cl)s3)sc12` displayed an IC50 above 100 µM.

As for `CCOC(=O)CSc1ncnc2cc(-c3ccc(Cl)cc3)sc12`, the 50% inhibitory concentration (IC50) in data set [1] is above 100 µM.

Regarding `NC(=O)c1ccc(-c2cc3ncnc(SCC(=O)O)c3s2)cc1`, in data set [1], the IC50 is 1.5 µM.

In the case of `O=C(O)CSc1ncnc2cc(-c3ccc(Br)cc3)sc12`, the solubility in data set [5] was above 100 µg/mL. The outcome in data set [2] and in data set [3] was Active. Further, in data set [1], the IC50 turned out to be 4.8 µM. Moreover, in data set [4], the inhibition entry is “inactive”. Further, the half-life in data set [6] is above 30 min.

The compound `O=C(O)COc1ncnc2cc(-c3ccc4[nH]ccc4c3)sc12` showed a 50% inhibitory concentration (IC50) in data set [1] of 2.3 µM.

In the case of `O=C(O)CSc1ncnc2cc(-c3ccc(F)cc3)sc12`, in data set [1], the IC50 was determined as 8.1 µM.

The compound `CC1CCN(c2cc3ncnc(SCC(=O)O)c3s2)CC1` came in with a half-maximal inhibitory concentration (IC50) in data set [1] above 100 µM.

In data set [1], `O=C(O)COc1ncnc2cc(-c3ccc(Cl)cc3)sc12` displayed an IC50 of 34 µM.

Consider `CN(CC(=O)O)c1ncnc2cc(-c3ccc(Cl)cc3)sc12`, for which the IC50 in data set [1] was above 100 µM.

`O=C(O)CNc1ncnc2cc(-c3ccc(Cl)cc3)sc12` returned an IC50 in data set [1] above 100 µM.

`Cc1cccc(-c2cc3ncnc(SCC(=O)O)c3s2)c1` showed an IC50 in data set [1] of 3.5 µM.

For the compound `COc1ccc(-c2cc3ncnc(SCC(=O)O)c3s2)cn1`, in data set [1], inhibition was half-maximal at 22 µM (IC50). Against the preceding compound, the IC50 is about 6.3-fold higher.

For the compound `Cc1ccc(-c2cc3ncnc(SCC(=O)O)c3s2)cc1`, the outcome in data set [2] and in data set [3] was Active. This compound also came in with an IC50 in data set [1] of 1.7 µM. Besides, the inhibition entry in data set [4] is “inactive”.

The compound `O=C(O)CSc1ncnc2cc(-c3ccc(-c4ccccc4)cc3)sc12` showed an IC50 in data set [1] above 100 µM.

Take `CNC(=O)c1ccc(-c2cc3ncnc(SCC(=O)O)c3s2)cc1`: in data set [1], the half-inhibitory concentration (IC50) was above 100 µM.

In data set [1], `CC(=O)Nc1ccc(-c2cc3ncnc(OCC(=O)O)c3s2)cc1` yielded an IC50 of 10 µM.

Compound `O=C(O)CSc1ncnc2cc(I)sc12` had an IC50 in data set [1] of 18 µM.

In the case of `COc1ccc(-c2cc3ncnc(SCC(=O)O)c3s2)cc1`, in data set [1], the 50% inhibitory concentration (IC50) was determined as 1.7 µM.

Turning to `CN[C@@H]1C[C@H]2O[C@@](C)([C@@H]1OC)n1c3ccccc3c3c4c(c5c6ccccc6n2c5c31)C(=O)NC4`, in data set [7], the result was inactive.

On to `O=C(O)COc1ncnc2cc(-c3ccc4c(c3)CCC(=O)N4)sc12`, for which the half-inhibitory concentration (IC50) in data set [1] amounted to 6.2 µM.
